Test results as given in paper PMC6631481, “De Novo Design and In Vitro Testing of Antimicrobial Peptides against Gram-Negative Bacteria” (Pharmaceuticals, 2019).
Non-standard residues stand in square brackets, D forms with d. Residues, ends and D or L forms follow the SMILES beside them. No end group written: not given here.

Tests used:
Format in all cases: cell-based
[1] = tested on: Escherichia coli ATCC 25922
Experimental: The MICs of the designed cationic peptides against Escherichia coli ATCC 25,922 strains were determined by the broth microdilution method, as described by Hancock et al.. All MIC evaluations were performed using Luria Bertani (LB) medium. Briefly, a range of each peptide concentrations (100 µg/mL, 50 µg/mL, 25 µg/mL, 12.5 µg/mL, 6.25 µg/mL, 3.125 µg/mL) was prepared by serial dilution in NaCl-depleted LB medium and added to an equal volume (250 µl) of exponentially grown bacterial culture, so that final bacterial suspension contained 5 × 10^5 CFU/mL. The samples were incubated in 2 mL polypropylene microtubes at 37 °C overnight at 300 rpm. The MIC was defined as the concentration at which no microbial growth was detected spectrophotometrically, via readings of optical density (OD) at 600 nm (Biotek ELX800 microplate reader). Growth medium containing only bacterial cells was used as a negative control. Each MIC test was carried out in two replicates and repeated three times.

P. aeruginosa BB2013-100 = assay: microbe, parasite or virus in culture; conditions: BB2013-100
Text: (§1) The following strains were used: P. aeruginosa (ATCC 27,853 and resistant strains: J4228 (R: Meropenem), BB2013-100 (FQR)); A. baumannii (Josh 28 and resistant strain Josh 230 (OXA-48); E. cloacae (resistant strains: BB2012-181(R: Meropenem), BB2013-32 (FQR)); E. aerogenes (resistant strain St. L P63 (NDM-1), E. asburiae/cloacae (resistant strain St. L P23 (NDM-1), K. pneumonia (J3702 and resistant strains: BB2009-209 (KPC-2), Oschner KP-1), Escherichia coli (BW25113 (7636) and resistant strains: JW55034 (11430) (Tol neg), BB2013-30 (R:carbapenem), ARLG-1012 (NDM)). Susceptibility testing was performed using non-cation adjusted MHB broth and polypropylene plates. Testing was also done in the presence and absence of acetic acid and BSA.

E. coli JW55034 (11430) = assay: microbe, parasite or virus in culture; conditions: phenotype Tol neg, non-cation adjusted MHB broth, polypropylene plates, meropenem by standard CLSI method
Text: as §1

A. baumannii Josh 230 = assay: microbe, parasite or virus in culture; conditions: Josh 230
Text: as §1

A. baumannii Josh 28 = assay: microbe, parasite or virus in culture; conditions: Josh 28
Text: as §1

E. coli ARLG-1012 = assay: microbe, parasite or virus in culture; conditions: ARLG-1012
Text: as §1

E. aerogenes St. L P63 = assay: microbe, parasite or virus in culture; conditions: St. L P63
Text: as §1

K. pneumoniae J3702 = assay: microbe, parasite or virus in culture; conditions: J3702
Text: as §1

E. cloacae BB2012-181 = assay: microbe, parasite or virus in culture; conditions: BB2012-181
Text: as §1

K. pneumoniae BB2009-209 = assay: microbe, parasite or virus in culture; conditions: BB2009-209
Text: as §1

E. coli BW25113 (7636) = assay: microbe, parasite or virus in culture; conditions: BW25113
Text: as §1

P. aeruginosa ATCC 27853 = assay: microbe, parasite or virus in culture; conditions: ATCC 27853
Text: as §1

[2] = tested on: K. pneumoniae Oschner KP-1; assay: microbe, parasite or virus in culture; conditions: Oschner KP-1
Text: as §1

P. aeruginosa J4228 = assay: microbe, parasite or virus in culture; conditions: J4228
Text: as §1

E. coli BB2013-30 = assay: microbe, parasite or virus in culture; conditions: BB2013-30
Text: as §1

E. cloacae BB2013-32 = assay: microbe, parasite or virus in culture; conditions: BB2013-32
Text: as §1

[3] = tested on: E. asburiae/cloacae St. L P23; assay: organism not typed
Text: as §1

| Compound | MIC At NaCl [1] [µg/mL] | MIC Without NaCl [1] [µg/mL] | MIC (P. aeruginosa BB2013-100) [µg/mL] | MIC (E. coli JW55034 (11430)) [µg/mL] | MIC (A. baumannii Josh 230) [µg/mL] | MIC (A. baumannii Josh 28) [µg/mL] | MIC (E. coli ARLG-1012) [µg/mL] | MIC (E. aerogenes St. L P63) [µg/mL] | MIC (K. pneumoniae J3702) [µg/mL] | MIC (E. cloacae BB2012-181) [µg/mL] | MIC (K. pneumoniae BB2009-209) [µg/mL] | MIC (E. coli BW25113 (7636)) [µg/mL] | MIC (P. aeruginosa ATCC 27853) [µg/mL] | MIC [2] [µg/mL] | MIC (P. aeruginosa J4228) [µg/mL] | MIC (E. coli BB2013-30) [µg/mL] | MIC (E. cloacae BB2013-32) [µg/mL] | MIC [3] [µg/mL] |
| --- | --- | --- | --- | --- | --- | --- | --- | --- | --- | --- | --- | --- | --- | --- | --- | --- | --- | --- |
| RWIRWVWRKKLRI-NH2 [SP14] | 12.5 to 25 | 3.125 to 6.25 |  |  |  |  |  |  |  |  |  |  |  |  |  |  |  |  |
| GIKFFLKKLKKHI-NH2 [SP4] | 25 to 50 | 6.25 to 12.5 | 32 | 8 | 4 | 2 | 8 | 16 | 32 | >32 | >32 | 8 | 8 | >32 | 16 | 16 | 16 | >32 |
| AIKIRKLFKKLLR-NH2 [SP1] | 12.5 to 25 | 3.125 to 6.25 | 32 | 8 | 16 | 4 | 8 |  | >32 |  | >32 | 8 | 4 | >32 | 8 | 16 | >32 | >32 |
| CC[C@@H](C)[C@@H](NC(=O)[C@@H](Cc1c[nH]c2ccccc12)NC(=O)[C@H](N)CCCNC(=N)N)C(=O)N[C@H](CCCNC(=N)N)C(=O)N[C@H](Cc1c[nH]c2ccccc12)C(=O)N[C@@H](C(=O)N[C@H](Cc1c[nH]c2ccccc12)C(=O)N[C@H](CCCNC(=N)N)C(=O)N[C@H](CCCCN)C(=O)N[C@H](CCCCN)C(=O)N[C@H](CC(C)C)C(=O)N[C@H](CCCNC(=N)N)C(N)=O)C(C)C [SP15D] (H-[dR][dW][dI][dR][dW][dV][dW][dR][dK][dK][dL][dR]-NH2) | 0.78 to 1.56 | 0.39 to 0.78 |  |  |  |  |  |  |  |  |  |  |  |  |  |  |  |  |
